Measured values published in US20250082648A1, “COMPOSITIONS AND METHODS FOR ENHANCING KRAS INHIBITOR OR SHP2 INHIBITOR EFFICACY” (New York University, priority 2023, published 2025).

Test system: H2122 cells
Experiment: CRISPR/Cas9 synthetic lethal screen with TNO155 alone
Format: cell-based, human
Settings: for neg|lfc: H2122 cells; for neg|score / pos|lfc: H2122

C[C@@H]1OCC2(CCN(c3cnc(Sc4ccnc(N)c4Cl)c(N)n3)CC2)[C@@H]1N [TNO155]
neg|lfc (AATF knockout): −0.9199 | neg|lfc (ABT1 knockout): −1.0094 | neg|lfc (ADAT3 knockout): −1.2793 | neg|score (ADSL knockout): 0.0007395 | neg|lfc (ADSS knockout): −1.8117 | neg|score (ANAPC2 knockout): 0.0008681 | neg|lfc (ARIH1 knockout): −1.1405 | neg|score (ASF1A knockout): 0.0009774 | neg|score (ASH2L knockout): 0.000721 | neg|lfc (ATP5B knockout): −1.2287 | neg|lfc (ATP6V0B knockout): −1.1768 | neg|score (ATP6V1D knockout): 0.0008813 | neg|score (ATP6V1E1 knockout): 0.0009389 | neg|lfc (ATRX knockout): −1.7393 | neg|lfc (AURKA knockout): −1.3711 | neg|lfc (BCAS2 knockout): −0.7436 | neg|score (BCCIP knockout): 0.0009424 | neg|score (C7orf26 knockout): 0.0008313 | neg|score (C12orf45 knockout): 0.0008272 | neg|score (C16orf59 knockout): 0.0007587 | neg|score (C16orf80 knockout): 0.000879 | neg|score (C17orf70 knockout): 0.0008636 | neg|lfc (CCDC115 knockout): −1.2834 | neg|score (CCDC174 knockout): 0.0007499 | neg|lfc (CEBPZ knockout): −1.2677 | neg|score (CENPL knockout): 0.000924 | neg|lfc (CHMP6 knockout): −1.2891 | neg|score (CLP1 knockout): 0.000693 | neg|lfc (CNOT7 knockout): −0.9274 | neg|score (COPS4 knockout): 0.0009634 | neg|lfc (COPS5 knockout): −1.8379 | neg|lfc (COPS8 knockout): −0.9744 | neg|score (COX10 knockout): 0.0009358 | neg|lfc (COX11 knockout): −0.6679 | neg|lfc (CSNK2B knockout): −1.5191 | neg|score (CTNNBL1 knockout): 0.0007324 | neg|score (DCTN1 knockout): 0.0008908 | neg|lfc (DCTN5 knockout): −1.6239 | neg|lfc (DCTN6 knockout): −1.5775 | neg|lfc (DDOST knockout): −0.981 | neg|lfc (DDX52 knockout): −1.1513 | neg|score (DDX54 knockout): 0.0009466 | neg|score (DGCR8 knockout): 0.0008832 | neg|lfc (DPH5 knockout): −1.0575 | neg|lfc (DPY30 knockout): −0.7867 | neg|score (DR1 knockout): 0.0008727 | neg|lfc (DUT knockout): −0.9153 | neg|lfc (DYNC1I2 knockout): −2.041 | neg|score (EIF2B1 knockout): 0.0008906 | neg|lfc (EIF2B5 knockout): −1.2117 | neg|score (EXOC5 knockout): 0.0008724 | neg|lfc (EXOSC8 knockout): −1.0794 | neg|lfc (FASTKD5 knockout): −0.9103 | neg|score (FBL knockout): 0.0009079 | neg|score (FBXL5 knockout): 0.0009454 | neg|score (FDX1L knockout): 0.0007487 | neg|lfc (FOXRED1 knockout): −0.9267 | neg|lfc (FSCN1 knockout): −0.9432 | neg|lfc (FTSJ3 knockout): −1.5605 | neg|score (FXN knockout): 0.000775 | neg|lfc (FZD9 knockout): −1.077 | neg|score (GARS knockout): 0.0008542 | neg|lfc (GEMIN4 knockout): −1.3849 | neg|score (GINS1 knockout): 0.0009186 | neg|lfc (GSG2 knockout): −1.139 | neg|lfc (GTF2F2 knockout): −0.9729 | neg|lfc (GTF3C1 knockout): −1.0865 | neg|score (GTPBP4 knockout): 0.0008361 | neg|lfc (HEATR2 knockout): −0.6955 | neg|lfc (HGS knockout): −0.9397 | neg|lfc (HNF1B knockout): −0.822 | neg|lfc (HSPA8 knockout): −2.0457 | neg|score (HSPA14 knockout): 0.0009105 | neg|lfc (IDI1 knockout): −0.7039 | neg|score (ILF3 knockout): 0.0008338 | neg|lfc (IMP4 knockout): −1.8118 | neg|score (IPO13 knockout): 0.0008689 | neg|score (IQGAP3 knockout): 0.0008176 | neg|score (JMJD6 knockout): 0.0007183 | neg|lfc (KANSL3 knockout): −1.734 | neg|score (KBTBD2 knockout): 0.0008277 | neg|score (KDM2A knockout): 0.0008953 | neg|lfc (KIF18A knockout): −1.181 | neg|score (KRAS knockout): 0.0008327 | neg|lfc (KRR1 knockout): −1.4982 | neg|score (LSM3 knockout): 0.0008487 | neg|score (LSM5 knockout): 0.0007041 | neg|lfc (LSM12 knockout): −0.7213 | neg|score (MBTPS1 knockout): 0.0007681 | neg|score (MCAT knockout): 0.0009141 | neg|score (MCM4 knockout): 0.000877 | neg|lfc (MED11 knockout): −1.4228 | neg|score (MOGAT3 knockout): 0.000754 | neg|score (MRPL11 knockout): 0.0007518 | neg|lfc (MRPL38 knockout): −1.0939 | neg|lfc (MRPL50 knockout): −1.0478 | neg|score (MRPS2 knockout): 0.0007231 | neg|score (MRRF knockout): 0.0008379 | neg|score (MTERFD2 knockout): 0.0008506 | neg|score (MTHFD1 knockout): 0.0007217 | neg|score (MYBBP1A knockout): 0.0009866 | neg|lfc (MYBL2 knockout): −0.6253 | neg|score (NAA10 knockout): 0.0008935 | neg|score (NASP knockout): 0.0009277 | neg|score (NCAPD2 knockout): 0.0009387 | neg|score (NDUFB9 knockout): 0.0007395 | neg|score (NDUFB10 knockout): 0.0009074 | neg|score (NDUFS1 knockout): 0.0007194 | neg|lfc (NDUFS5 knockout): −0.8577 | neg|lfc (NEDD8 knockout): −2.4196 | neg|lfc (NIP7 knockout): −0.8825 | neg|lfc (NLE1 knockout): −1.8629 | neg|lfc (NME6 knockout): −1.1709 | neg|lfc (NOL6 knockout): −1.0733 | neg|score (NOL8 knockout): 0.000711 | neg|lfc (NPLOC4 knockout): −1.2039 | neg|score (NRF1 knockout): 0.0008548 | neg|lfc (NSMCE2 knockout): −1.577 | neg|lfc (NUBP1 knockout): −1.2742 | neg|lfc (OGT knockout): −1.3076 | neg|score (OR3A2 knockout): 0.0009552 | neg|lfc (PDHA1 knockout): −0.7499 | neg|lfc (PGGT1B knockout): −0.821 | neg|lfc (PI4KA knockout): −1.1904 | neg|score (PNN knockout): 0.0007486 | neg|score (POLD2 knockout): 0.0007896 | neg|score (POLR3A knockout): 0.0008536 | neg|score (PPIL4 knockout): 0.000952 | neg|lfc (PRKRIR knockout): −1.3008 | neg|score (PRPF19 knockout): 0.0007312 | neg|score (PRPF38B knockout): 0.0009555 | neg|lfc (PSMA6 knockout): −1.9056 | neg|score (PSMB4 knockout): 0.000768 | neg|lfc (QARS knockout): −1.1752 | neg|score (RABGGTA knockout): 0.0007119 | neg|lfc (RABIF knockout): −1.3292 | neg|lfc (RANBP1 knockout): −0.7938 | neg|lfc (RBM10 knockout): −1.4299 | neg|lfc (RBM48 knockout): −1.4768 | neg|score (RBX1 knockout): 0.0008383 | neg|score (RFC2 knockout): 0.0008264 | neg|score (RNASEH1 knockout): 0.000903 | neg|lfc (RNF20 knockout): −0.9142 | neg|score (RNF168 knockout): 0.0008246 | neg|score (RNPS1 knockout): 0.0009345 | neg|score (RPF2 knockout): 0.0009481 | neg|lfc (RPL7 knockout): −1.3947 | neg|lfc (RPL18A knockout): −1.5316 | neg|lfc (RPL35 knockout): −0.8092 | neg|lfc (RPP30 knockout): −1.2535 | neg|score (RPS2 knockout): 0.0008275 | neg|lfc (RPS8 knockout): −2.8705 | neg|lfc (RRM1 knockout): −1.5038 | neg|score (SASS6 knockout): 0.0008932 | neg|lfc (SKA2 knockout): −1.5851 | neg|lfc (SLC39A14 knockout): −0.9135 | neg|score (SMARCB1 knockout): 0.0008764 | neg|score (SOD1 knockout): 0.0007147 | neg|lfc (SRPRB knockout): −0.9129 | neg|score (SUPT4H1 knockout): 0.0007007 | neg|lfc (SUZ12 knockout): −0.9357 | neg|lfc (TARDBP knockout): −1.4541 | neg|lfc (TBCA knockout): −1.4702 | neg|lfc (TBP knockout): −1.6473 | neg|lfc (TFB1M knockout): −0.9751 | neg|score (TFDP1 knockout): 0.0007958 | neg|score (TIMM13 knockout): 0.0007917 | neg|score (TMEM130 knockout): 0.0009518 | neg|score (TNPO3 knockout): 0.0009376 | neg|score (TRIT1 knockout): 0.0007446 | neg|lfc (TSR1 knockout): −1.335 | neg|score (TTC27 knockout): 0.0008097 | neg|score (TTI1 knockout): 0.0008319 | neg|score (TUBE1 knockout): 0.0008874 | neg|score (TUT1 knockout): 0.0008619 | neg|lfc (TXNL4A knockout): −1.8929 | neg|score (TYMS knockout): 0.0007567 | neg|lfc (UBC knockout): −1.0724 | neg|score (UBE2I knockout): 0.0008281 | neg|lfc (UBR4 knockout): −1.0947 | neg|lfc (UBR5 knockout): −1.3884 | neg|score (UBTF knockout): 0.0007853 | neg|lfc (UQCRC2 knockout): −1.0409 | neg|lfc (UTP6 knockout): −2.6455 | neg|score (UTP20 knockout): 0.0007152 | neg|score (VMA21 knockout): 0.000773 | neg|lfc (VPS18 knockout): −1.3116 | neg|lfc (VPS53 knockout): −0.6999 | neg|lfc (VPS72 knockout): −0.5497 | neg|score (WDHD1 knockout): 0.0009781 | neg|score (WDR3 knockout): 0.0009589 | neg|score (WDR18 knockout): 0.0007708 | neg|lfc (WNK1 knockout): −1.0645 | neg|score (WRAP53 knockout): 0.0007984 | neg|score (XPR1 knockout): 0.000881 | neg|lfc (XRCC5 knockout): −1.6679 | neg|score (ZBTB11 knockout): 0.0007214 | neg|lfc (ZCCHC9 knockout): −1.957 | neg|score (ZNF131 knockout): 0.0008989 | neg|lfc (ZNRD1 knockout): −1.5763 | pos|lfc (gene ACTB): −1.1591 | pos|lfc (gene ALG3): −0.5782 | pos|lfc (gene ANAPC15): −1.2923 | pos|lfc (gene AP2S1): −1.3206 | pos|lfc (gene ARID4B): −0.9143 | pos|lfc (gene BRCA1): −0.6966 | pos|lfc (gene BUB1B): −0.8094 | pos|lfc (gene C1D): −1.3624 | pos|lfc (gene C16orf72): −2.2251 | pos|lfc (gene CABIN1): −0.7818 | pos|lfc (gene COPS6): −1.1267 | pos|lfc (gene CS): −1.0352 | pos|lfc (gene DARS2): −1.095 | pos|lfc (gene DCLRE1B): −0.6801 | pos|lfc (gene DDX49): −2.1703 | pos|lfc (gene DYNC1H1): −1.3605 | pos|lfc (gene DYNLRB1): −1.1311 | pos|lfc (gene EIF2S1): −1.3093 | pos|lfc (gene EIF2S2): −1.5347 | pos|lfc (gene EIF5AL1): −0.8423 | pos|lfc (gene EIF5B): −1.1819 | pos|lfc (gene FANCA): −0.6873 | pos|lfc (gene FANCG): −0.7949 | pos|lfc (gene FNTB): −0.9877 | pos|lfc (gene GCN1L1): −0.5542 | pos|lfc (gene GRWD1): −0.9019 | pos|lfc (gene GTPBP8): −1.0746 | pos|lfc (gene HNRNPL): −1.1529 | pos|lfc (gene HNRNPR): −0.5338 | pos|lfc (gene KIAA1429): −1.1326 | pos|lfc (gene LIMS1): −0.8407 | pos|lfc (gene MMGT1): −0.748 | pos|lfc (gene MRPL54): −0.8393 | pos|lfc (gene NDUFB2): −0.8331 | pos|lfc (gene NDUFC1): −0.9001 | pos|lfc (gene NOP16): −1.0035 | pos|lfc (gene PDCD7): −0.9939 | pos|lfc (gene PDE12): −0.8248 | pos|lfc (gene PEAR1): −0.6471 | pos|lfc (gene POLD3): −1.3598 | pos|lfc (gene POLR1C): −0.9691 | pos|lfc (gene POLR2F): −1.9506 | pos|lfc (gene PPHLN1): −0.829 | pos|lfc (gene PPOX): −0.7508 | pos|lfc (gene PWP2): −1.0599 | pos|lfc (gene RIMBP2): −0.4894 | pos|lfc (gene RMND1): −0.9991 | pos|lfc (gene RPL3): −1.3237 | pos|lfc (gene RPS19): −2.0213 | pos|lfc (gene SEZ6): −0.6228 | pos|lfc (gene SLC2A1): −0.9368 | pos|lfc (gene SMC3): −1.7209 | pos|lfc (gene SMC6): −1.1456 | pos|lfc (gene SMG5): −1.2307 | pos|lfc (gene SNRNP40): −1.1024 | pos|lfc (gene TEX10): −1.3169 | pos|lfc (gene TIFAB): −0.6891 | pos|lfc (gene TOMM22): −0.8272 | pos|lfc (gene TRAPPC4): −1.0187 | pos|lfc (gene TTI2): −0.8554 | pos|lfc (gene USP10): −0.902 | pos|lfc (gene WDR12): −1.1622 | pos|lfc (gene WDR92): −1.2556 | pos|lfc (gene ZNHIT6): −1.4893
